{"source": "patent US6620585B1", "about": "“Use of ectoenzymes and secreted enzymes to monitor cellular proliferation” (priority 2000, dated 2003)", "note": "Positions of bridges follow the written chain, without caps; N, C: chain ends. Non-standard residues stand in square brackets, D forms with d. Residues, ends and D or L forms follow the SMILES beside them. *: point of attachment. Ileψ(thiazoline)Cys = CC[C@H](C)[C@H](N)C1=N[C@H](C(=O)*)CS1; dOrn = NCCC[C@@H](N)C(=O)O"}
{"tested_on": "bacterial strain engineered for expression of an antisense complementary to a proliferation-required 50S ribosomal protein (rplL and rplJ)", "experiment": "not given", "type": "cell-based, E. coli", "settings": "antisense to rplL and rplJ induced, 400 μM IPTG; growth by light scattering at 595 nm, mid-exponential time point", "procedure": "(§1) The effectiveness of the above assays was validated using proliferation-required genes from E. coli which were identified using procedures similar to those described above. Antibiotics of various chemical classes and modes of action were purchased from Sigma Chemicals (St. Louis, Mo.). Stock solutions were prepared by dissolving each antibiotic in an appropriate aqueous solution based on information provided by the manufacturer. The final working solution of each antibiotic contained no more than 0.2% (w/v) of any organic solvent. To determine their potency against a bacterial strain engineered for expression of an antisense complementary to a proliferation-required 50S ribosomal protein, each antibiotic was serially diluted two or three fold in growth medium supplemented with the appropriate antibiotic for maintenance of the anti-sense construct. At least ten dilutions were prepared for each antibiotic. 25 μL aliquots of each dilution were transferred to discrete wells of a 384-well microplate (the assay plate) using a multi-channel pipette. Quadruplicate wells were used for each dilution of an antibiotic under each treatment condition (plus and minus inducer). Each assay plate contained twenty wells for cell growth controls (growth media replacing antibiotic), ten wells for each treatment (plus and minus inducer, in this example IPTG). Assay plates were usually divided into the two treatments: half the plate containing induced cells and an appropriate concentrations of inducer (in this example IPTG) to maintain the state of induction, the other half containing non-induced cells in the absence of IPTG.\n(§2) Cells for the assay were prepared as follows. Bacterial cells containing a construct, from which expression of antisense nucleic acid complementary to rplL and rplJ, which encode proliferation-required 50S ribosomal subunit proteins, is inducible in the presence of IPTG, were grown into exponential growth (OD600 0.2 to 0.3) and then diluted 1:100 into fresh media containing either 400 μM or 0 μM inducer (IPTG). These cultures were incubated at 37° C. for 2.5 hr. After a 2.5 hr incubation, induced and non-induced cells were respectively diluted into an assay medium at a final OD600 value of 0.0004. The medium contained an appropriate concentration of the antibiotic for the maintenance of the antisense construct. In addition, the medium used to dilute induced cells was supplemented with 800 μM IPTG so that addition to the assay plate would result in a final IPTG concentration of 400 μM. Induced and non-induced cell suspensions were dispensed (25 μl/well) into the appropriate wells of the assay plate as discussed previously. The plate was then loaded into a plate reader, incubated at constant temperature, and cell growth was monitored in each well by the measurement of light scattering at 595 nm. Growth was monitored every 5 minutes until the cell culture attained a stationary growth phase. For each concentration of antibiotic, a percentage inhibition of growth was calculated at the time point corresponding to mid-exponential growth for the associated control wells (no antibiotic, plus or minus IPTG). For each antibiotic and condition (plus or minus IPTG), a plot of percent inhibition versus log of antibiotic concentration was generated and the IC50 determined.", "units": {"IC50 (+IPTG)": "µg/mL"}}
{"compound": "CN(C)c1ccc(O)c2c1C[C@H]1C[C@H]3[C@H](N(C)C)C(O)=C(C(N)=O)C(=O)[C@@]3(O)C(O)=C1C2=O", "note": "[Minocycline]", "IC50 (+IPTG)": 0.003897}
{"compound": "CN[C@@H]1[C@H](O)[C@H](NC)[C@H]2O[C@@]3(O)C(=O)C[C@@H](C)O[C@H]3O[C@@H]2[C@H]1O", "note": "[Spectinomycin]", "IC50 (+IPTG)": "<0.156"}
{"tested_on": "bacterial strain engineered for expression of an antisense complementary to a proliferation-required 50S ribosomal protein (rplL and rplJ)", "experiment": "not given", "type": "cell-based, E. coli", "settings": "significant decrease in IC50 in the presence of inducer (IPTG)", "procedure": "as §1, §2"}
{"compound": "CC[C@H](C)[C@H](N)C1=N[C@H](C(=O)N[C@@H](CC(C)C)C(=O)N[C@H](CCC(=O)O)C(=O)N[C@H](C(=O)N[C@H]2CCCCNC(=O)[C@H](CC(N)=O)NC(=O)[C@@H](CC(=O)O)NC(=O)[C@H](Cc3cnc[nH]3)NC(=O)[C@@H](Cc3ccccc3)NC(=O)[C@H]([C@@H](C)CC)NC(=O)[C@@H](CCCN)NC2=O)[C@@H](C)CC)CS1", "note": "[Bacitracin] ({Ileψ(thiazoline)Cys}-L[dE]IK[dOrn]I[dF]H[dD]N; lactam 4-C)", "Sensitivity Increased ?": "No"}
{"compound": "CO/N=C(\\C(=O)N[C@@H]1C(=O)N2C(C(=O)O)=C(COC(C)=O)CS[C@H]12)c1csc(N)n1", "note": "[Cefotaxime]", "Sensitivity Increased ?": "No"}
{"compound": "CO[C@@]1(NC(=O)Cc2cccs2)C(=O)N2C(C(=O)O)=C(COC(N)=O)CS[C@@H]21", "note": "[Cefoxitin]", "Sensitivity Increased ?": "No"}
{"compound": "O=C(N[C@H](CO)[C@H](O)c1ccc([N+](=O)[O-])cc1)C(Cl)Cl", "note": "[Chloramphenicol]", "Sensitivity Increased ?": "Yes"}
{"compound": "CC[C@H]1OC(=O)[C@H](C)[C@@H](O[C@H]2C[C@@](C)(OC)[C@@H](O)[C@H](C)O2)[C@H](C)[C@@H](O[C@@H]2O[C@H](C)C[C@H](N(C)C)[C@H]2O)[C@](C)(O)C[C@@H](C)C(=O)[C@H](C)[C@@H](O)[C@]1(C)O", "note": "[Erythromycin]", "Sensitivity Increased ?": "Yes"}
{"compound": "CC(=O)O[C@H]1C[C@@]2(C)[C@@H](C[C@@H](O)[C@H]3[C@@]4(C)CC[C@@H](O)[C@@H](C)[C@@H]4CC[C@@]32C)/C1=C(\\CCC=C(C)C)C(=O)O", "note": "[Fusidic acid]", "Sensitivity Increased ?": "Yes"}
{"compound": "CCC[C@@H]1C[C@@H](C(=O)N[C@@H]([C@H]2O[C@H](SC)[C@H](O)[C@@H](O)[C@H]2O)[C@@H](C)O)N(C)C1", "note": "[Lincomycin]", "Sensitivity Increased ?": "Yes"}
{"compound": "CCn1cc(C(=O)O)c(=O)c2ccc(C)nc21", "note": "[Nalidixic acid]", "Sensitivity Increased ?": "No"}
{"compound": "CN[C@@H]1[C@H](O)[C@H](NC)[C@H]2O[C@@]3(O)C(=O)C[C@@H](C)O[C@H]3O[C@@H]2[C@H]1O", "note": "[Spectinomycin]", "Sensitivity Increased ?": "Yes"}
{"compound": "[H]/N=C(/N)N[C@H]1[C@H](O)[C@@H](O)[C@H](O[C@@H]2O[C@@H](C)[C@](O)(C=O)[C@H]2O[C@@H]2O[C@@H](CO)[C@H](O)[C@@H](O)[C@@H]2NC)[C@@H](N/C(N)=N\\[H])[C@@H]1O", "note": "[Streptomycin]", "Sensitivity Increased ?": "Yes"}
{"compound": "NC[C@H]1O[C@H](O[C@H]2[C@H](O)[C@@H](O[C@H]3O[C@H](CO)[C@@H](O)[C@H](N)[C@H]3O)[C@H](N)C[C@@H]2N)[C@H](N)C[C@@H]1O", "note": "[Tobramycin]", "Sensitivity Increased ?": "Yes"}
{"compound": "CN[C@H](CC(C)C)C(=O)N[C@H]1C(=O)N[C@@H](CC(N)=O)C(=O)N[C@H]2C(=O)N[C@H]3C(=O)N[C@H](C(=O)N[C@H](C(=O)O)c4cc(O)cc(O)c4-c4cc3ccc4O)[C@H](O)c3ccc(c(Cl)c3)Oc3cc2cc(c3O[C@@H]2O[C@H](CO)[C@@H](O)[C@H](O)[C@H]2O[C@H]2C[C@](C)(N)[C@H](O)[C@H](C)O2)Oc2ccc(cc2Cl)[C@H]1O", "note": "[Vancomycin]", "Sensitivity Increased ?": "No"}
{"compound": "Gentamicin", "Sensitivity Increased ?": "Yes"}
{"tested_on": "E. coli strain DJKGC4", "experiment": "Chitobiase-based cell growth assay, gentamicin dose response in 1536-well plate", "settings": "5 hours, 100 μM MNAG", "procedure": "FIG. 6 is an E. coli dose response curve to gentamicin. E. coli strain DJKGC4 was inubated with various concentrations of gentamicin for 5 hours in a 1536 well plate in the presence of 100 μM 4-methylumbelliferyl N-acetyl β-D-glucosaminide (MNAG). After removal of background fluorescence, the inhibition of cell growth produced by each gentamicin concentration was calculated by comparison to the fluorescence generated by control cells growing in the absence of gentamicin.\nTo follow cell growth using the fluorogenic substrate MNAG, E. coli cells of strain DJKGC4 containing a chromosomally integrated, constitutively expressed chitobiase gene were added to an appropriate growth medium containing 100 μM MNAG, and the resulting cell suspension was dispensed into the wells of 1536-well microplates as described above. Following addition of test compounds and controls, plates were incubated at 37° C. and cell growth was followed by measurement of the fluorescent product of chitobiase activity, 4-methylumbelliferone using an Acquest reader (LJL Biosystems, excitation wavelength 360 nm, emission wavelength 425 nm).\nAn E. coli dose response to gentamicin was obtained by incubating E. coli strain DJKGC4 with various concentrations of gentamicin for 5 hours in a 1536-well plate in the presence of 100 μM MNAG. […]"}
{"compound": "Gentamicin", "IC50 by the chitobiase-based assay compared with 384 well plate format, turbidity-based assays": "indistinguishable"}
